Laboratory results from article PMC6001238, “Iterative Chemical Engineering of Vancomycin Leads to Novel Vancomycin Analogs With a High in Vitro Therapeutic Index” (Frontiers in Microbiology, 2018).
In brackets after ≈: the same amount, converted by molar mass.

Legend:
S. aureus VRSA = experiment: MIC, broth microdilution, vancomycin-resistant S. aureus (VRSA); format: cell-based, Staphylococcus aureus; conditions: for MIC: Staphylococcus aureus VRSA, read-out: MIC; for MIC-fold improvement vs. vancomycin: VRSA, ratio of MIC of vancomycin and MIC of analogue
Method in brief: (§1)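 Following CLSI antimicrobial susceptibility standards, organisms were tested by broth microdilution. Controls comprised ultrapure water plus broth left uninoculated. For a single condition, 10 μM vancomycin (final) accompanied the analog or control agent.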

[1] = system: L1210, CEM and HeLa cell lines; experiment: Cytostatic activity, average or summary over L1210, CEM and HeLa; format: cell-based; conditions: average of L1210, CEM and HeLa; read-out: Toxicity (IC50) Average
Method in brief: (§2)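 Readout: Coulter cell number after drug exposure at 37°C. Durations differ by line (L1210 2 days; CEM 3 days; HeLa 4 days). Stock suspension 300,000–500,000 cells/mL, diluted by mixing with compound. Endpoint: IC50 vs negative control.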

[2] = system: S. aureus VSSA (ATCC 6538); experiment: MIC, broth microdilution, vancomycin-sensitive S. aureus (VSSA/MSSA, ATCC 6538); format: cell-based, Staphylococcus aureus; conditions: for MIC: Staphylococcus aureus VSSA, read-out: MIC; for MIC-fold improvement vs. vancomycin: VSSA, ratio of MIC of vancomycin and MIC of analogue
Method in brief: as §1

[3] = system: human cervix carcinoma (HeLa) cells; experiment: Cytostatic activity, HeLa cell proliferation; format: cell-based; conditions: mean ± SD of three experiments; highest concentration tested 250 µM; 4 days; read-out: Toxicity (IC50) HeLa
Method in brief: as §2

MRSA KS1 = experiment: MIC, broth microdilution, MRSA KS1; format: cell-based, Staphylococcus aureus; conditions: for MIC-fold improvement vs. vancomycin: MRSA KS1, ratio of MIC of vancomycin and MIC of analogue; for MIC: Staphylococcus aureus MRSA KS1, read-out: MIC
Method in brief: as §1

MRSA KS6 = experiment: MIC, broth microdilution, MRSA KS6; format: cell-based, Staphylococcus aureus; conditions: for MIC-fold improvement vs. vancomycin: MRSA KS6, ratio of MIC of vancomycin and MIC of analogue; for MIC: Staphylococcus aureus MRSA KS6, read-out: MIC
Method in brief: as §1

E. faecalis VRE 53 = experiment: MIC, broth microdilution, vancomycin-resistant E. faecalis VRE 53 (VanA); format: cell-based, Enterococcus faecalis; conditions: for MIC: Enterococcus faecalis VRE 53 (vancomycin-resistant), read-out: MIC; for MIC-fold improvement vs. vancomycin: VRE 53, ratio of MIC of vancomycin and MIC of analogue
Method in brief: as §1

MRSA KS2 = experiment: MIC, broth microdilution, MRSA KS2; format: cell-based, Staphylococcus aureus; conditions: for MIC-fold improvement vs. vancomycin: MRSA KS2, ratio of MIC of vancomycin and MIC of analogue; for MIC: Staphylococcus aureus MRSA KS2, read-out: MIC
Method in brief: as §1

MRSA KS89 = experiment: MIC, broth microdilution, MRSA KS89; format: cell-based, Staphylococcus aureus; conditions: for MIC-fold improvement vs. vancomycin: MRSA KS8, ratio of MIC of vancomycin and MIC of analogue; for MIC: Staphylococcus aureus MRSA KS8, read-out: MIC
Method in brief: as §1

[4] = system: human T-lymphocyte (CEM) cells; experiment: Cytostatic activity, CEM cell proliferation; format: cell-based; conditions: mean ± SD of three experiments; highest concentration tested 250 µM; 3 days; read-out: Toxicity (IC50) CEM
Method in brief: as §2

E. faecalis VRE 6 = experiment: MIC, broth microdilution, vancomycin-resistant E. faecalis VRE 6 (VanA); format: cell-based, Enterococcus faecalis; conditions: for MIC: Enterococcus faecalis VRE 6 (vancomycin-resistant), read-out: MIC; for MIC-fold improvement vs. vancomycin: VRE 6, ratio of MIC of vancomycin and MIC of analogue
Method in brief: as §1

[5] = system: Murine leukemia (L1210) cells; experiment: Cytostatic activity, L1210 cell proliferation; format: cell-based; conditions: mean ± SD of three experiments; highest concentration tested 250 µM; 2 days; read-out: Toxicity (IC50) L1210
Method in brief: as §2

E. faecalis VSE 1 = experiment: MIC, broth microdilution, vancomycin-sensitive E. faecalis (VSE 1); format: cell-based, Enterococcus faecalis; conditions: for MIC: Enterococcus faecalis VSE 1 (vancomycin-sensitive), read-out: MIC; for MIC-fold improvement vs. vancomycin: VSE 1, ratio of MIC of vancomycin and MIC of analogue
Method in brief: as §1

S. aureus VISA/HIP5827 = experiment: MIC, broth microdilution, vancomycin-intermediate S. aureus VISA HIP5827; format: cell-based, Staphylococcus aureus; conditions: for MIC: Staphylococcus aureus VISA/HIP5827, read-out: MIC; for MIC-fold improvement vs. vancomycin: VISA/HIP5827, ratio of MIC of vancomycin and MIC of analogue
Method in brief: as §1

E. faecalis VRE 37 = experiment: MIC, broth microdilution, vancomycin-resistant E. faecalis VRE 37 (VanA); format: cell-based, Enterococcus faecalis; conditions: for MIC: Enterococcus faecalis VRE 37 (vancomycin-resistant), read-out: MIC; for MIC-fold improvement vs. vancomycin: VRE 37, ratio of MIC of vancomycin and MIC of analogue
Method in brief: as §1

E. faecalis VRE 29 = experiment: MIC, broth microdilution, vancomycin-resistant E. faecalis VRE 29 (VanA); format: cell-based, Enterococcus faecalis; conditions: for MIC: Enterococcus faecalis VRE 29 (vancomycin-resistant), read-out: MIC; for MIC-fold improvement vs. vancomycin: VRE 29, ratio of MIC of vancomycin and MIC of analogue
Method in brief: as §1

SMILES	MIC (S. aureus VRSA) [µM]	MIC-fold improvement vs. vancomycin (S. aureus VRSA)	IC50 [1] [µM]	MIC [2] [µM]	MIC-fold improvement vs. vancomycin [2]	IC50 [3] [µM]	MIC-fold improvement vs. vancomycin (MRSA KS1)	MIC (MRSA KS1) [µM]	MIC-fold improvement vs. vancomycin (MRSA KS6)	MIC (MRSA KS6) [µM]	MIC (E. faecalis VRE 53) [µM]	MIC-fold improvement vs. vancomycin (E. faecalis VRE 53)	MIC-fold improvement vs. vancomycin (MRSA KS2)	MIC (MRSA KS2) [µM]	MIC-fold improvement vs. vancomycin (MRSA KS89)	MIC (MRSA KS89) [µM]	IC50 [4] [µM]	MIC (E. faecalis VRE 6) [µM]	MIC-fold improvement vs. vancomycin (E. faecalis VRE 6)	IC50 [5] [µM]	also measured
CN[C@H](CC(C)C)C(=O)N[C@H]1C(=O)N[C@@H](CC(N)=O)C(=O)N[C@H]2C(=O)N[C@H]3C(=O)N[C@H](C(=O)N[C@H](C(=O)NCC(=O)Nc4cc(C)ccc4O)c4cc(O)cc(O)c4-c4cc3ccc4O)[C@H](O)c3ccc(c(Cl)c3)Oc3cc2cc(c3O[C@@H]2O[C@H](CO)[C@@H](O)[C@H](O)[C@H]2O[C@H]2C[C@](C)(N)[C@H](O)[C@H](C)O2)Oc2ccc(cc2Cl)[C@H]1O [Vanc-18]	25 (≈ 40.3 µg/mL)	4	> 250	0.78 (≈ 1.26 µg/mL)	1	> 250	1	0.78 (≈ 1.26 µg/mL)	1	0.78 (≈ 1.26 µg/mL)	25 (≈ 40.3 µg/mL)	16	2	0.39 (≈ 0.628 µg/mL)	1	0.78 (≈ 1.26 µg/mL)	> 250	12.5 (≈ 20.1 µg/mL)	16	> 250	MIC (E. faecalis VSE 1): 1.56 µM (≈ 2.51 µg/mL); MIC-fold improvement vs. vancomycin (E. faecalis VSE 1): 1; MIC (S. aureus VISA/HIP5827): 0.78 µM (≈ 1.26 µg/mL); MIC-fold improvement vs. vancomycin (S. aureus VISA/HIP5827): 8; MIC (E. faecalis VRE 37): 50 µM (≈ 80.6 µg/mL); MIC-fold improvement vs. vancomycin (E. faecalis VRE 37): 8; MIC (E. faecalis VRE 29): 25 µM (≈ 40.3 µg/mL); MIC-fold improvement vs. vancomycin (E. faecalis VRE 29): 16
CNC(CC(C)C)C(=O)NC1C(=O)NC(CC(N)=O)C(=O)NC2C(=O)NC3C(=O)NC(C(=O)NC(C(=O)NCC(=O)Nc4ccc5c(c4)C(=O)c4ccccc4-5)c4cc(O)cc(O)c4-c4cc3ccc4O)C(O)c3ccc(c(Cl)c3)Oc3cc2cc(c3OC2OC(CO)C(O)C(O)C2OC2CC(C)(N)C(O)C(C)O2)Oc2ccc(cc2Cl)C1O (centres unmarked) [Vanc-89]	0.78 (≈ 1.31 µg/mL)	128	88	0.10 (≈ 0.168 µg/mL)	8	154 ± 30	8	0.10 (≈ 0.168 µg/mL)	4	0.20 (≈ 0.337 µg/mL)	12.5 (≈ 21 µg/mL)	32	8	0.10 (≈ 0.168 µg/mL)	4	0.20 (≈ 0.337 µg/mL)	38 ± 10	3.13 (≈ 5.27 µg/mL)	64	71 ± 56	MIC (E. faecalis VSE 1): ≤0.05 µM; MIC-fold improvement vs. vancomycin (E. faecalis VSE 1): ≥32; MIC (S. aureus VISA/HIP5827): 0.78 µM (≈ 1.31 µg/mL); MIC-fold improvement vs. vancomycin (S. aureus VISA/HIP5827): 8; MIC (E. faecalis VRE 37): 6.25 µM (≈ 10.5 µg/mL); MIC-fold improvement vs. vancomycin (E. faecalis VRE 37): 64; MIC (E. faecalis VRE 29): 6.25 µM (≈ 10.5 µg/mL); MIC-fold improvement vs. vancomycin (E. faecalis VRE 29): 64
